Test results taken from US8546378B2, “5HT2C receptor modulator compositions and methods of use” (Arena Pharmaceuticals, Inc., priority 2004, dated 2013).

Assays:
human 5-HT2C receptor = biological target: T1, human 5-HT2C receptor (Homo sapiens, UniProt P28335); experiment: Intracellular IP3 Accumulation Assay; assay type: cell-based; conditions: HEK293 cells transfected with human 5-HT2C receptor; averages of at least two trials; read-out: 5-HT2C (EC50) IP Accumulation Assay
T1 construct: expressed in transfected cells; host or cells: HEK293
T1 sequence (P28335 33-458): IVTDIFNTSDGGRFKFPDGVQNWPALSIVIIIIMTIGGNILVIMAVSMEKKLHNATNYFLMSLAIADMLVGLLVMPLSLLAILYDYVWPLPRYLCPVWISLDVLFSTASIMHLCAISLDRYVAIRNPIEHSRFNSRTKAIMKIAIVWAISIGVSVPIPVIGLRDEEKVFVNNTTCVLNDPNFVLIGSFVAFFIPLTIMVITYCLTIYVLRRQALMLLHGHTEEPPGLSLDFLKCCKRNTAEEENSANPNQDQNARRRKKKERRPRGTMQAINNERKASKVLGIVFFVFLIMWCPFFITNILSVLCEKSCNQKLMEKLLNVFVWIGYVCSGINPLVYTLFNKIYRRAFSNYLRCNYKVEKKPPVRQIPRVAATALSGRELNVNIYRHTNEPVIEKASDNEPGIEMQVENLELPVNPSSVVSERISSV
Experimental: HEK293 cells were transfected in 15 cm sterile dishes with or without (control) 16 μg of human 5-HT2C receptor cDNA using 25 μl of lipofectamine. Cells were then incubated for 3-4 hours at 37° C./5% CO2 and then transfection media was removed and replaced with 100 μl of DMEM. Cells were then plated onto 100 cm sterile dishes. The next day cells were plated into 96 well PDL microtiter plates at a density of 55K/0.2 ml. Six hours latter, media was exchanged with [^3H]inositol (0.25 μCi/well) in inositol free DMEM and plates were incubated at 37° C./5% CO2 overnight. The next day, wells were aspirated and 200 μl of DMEM containing test compound, 10 μM pargyline, and 10 mM LiCl was added to appropriate wells. Plates were then incubated at 37° C./5% CO2 for three hours followed aspiration and by addition of fresh ice cold stop solution (1M KOH, 19 mM Na-borate, 3.8 mM EDTA) to each well. Plates were kept on ice for 5-10 min and the wells were neutralized by addition of 200 μl of fresh ice cold neutralization solution (7.5% HCl). Plates were then frozen until further processing is desired. The lysate was then transferred into 1.5 ml Eppendorf tubes and 1 ml of chloroform/methanol (1:2) was added/tube. The solution was vortexed for 15 seconds and the upper phase was applied to a Biorad AG1-X8™ anion exchange resin (100-200 mesh). First, the resin was washed with water at 1:1.25 W/V and 0.9 ml of upper phase was loaded onto the column. The column was then washed with 10 ml of 5 mM myo-inositol and 10 ml of 5 mM Na-borate/60 mM Na-formate. The inositol tris phosphates were eluted into scintillation vials containing 10 ml of scintillation cocktail with 2 ml of 0.1 M formic acid/1 M ammonium formate. The columns were regenerated by washing with 10 ml of 0.1 M formic acid/3M ammonium formate and rinsed twice with dd H2O and stored at 4° C. in water.

Sprague-Dawley (SD) rats = experiment: Food intake in rats: selective 5HT-2C agonist alone, phentermine alone, or combination (Example 59); assay type: in vivo, rat; conditions: perorally, 2 h food intake, two-way ANOVA, Bonferroni p<0.01; for effect on food intake in female rats: female SD rats, FIG. 3A; for effect on food intake in male rats: male SD rats, FIG. 3B
Experimental: Female (weight 225-250 g) and male (weight 250-275 g) Sprague-Dawley (SD) rats were purchased from Harlan (San Diego, Calif.) and housed 4 per cage in a temperature controlled environment under a 17 h/7 h light/dark cycle (lights out at 10:00 am). Water and Chow was available (LabDiet 8604) ad libitum for two weeks. The animals were handled for 2 occasions during this time. On the morning of the study, the animals were individually housed with no food or bedding and dosed perorally with 1 ml/kg of compound or vehicle 30 minutes prior to lights out. At lights out, the animals were given a pre-weighed amount of chow and placed near the food bowl. Two hours later the remaining chow was weighed and the study concluded.

Row | Compound | EC50 (human 5-HT2C receptor) [nM] | effect on food intake in female rats (Sprague-Dawley (SD) rats) | effect on food intake in male rats (Sprague-Dawley (SD) rats)
1 | COc1cc2c(cc1Br)C(C)CNCC2 (racemic) [Example 1, (R,S) 8-Bromo-7-methoxy-1-methyl-2,3,4,5-tetrahydro-1H-3-benzazepine] | 4.2 |  | 
2 | COc1cc2c(cc1Cl)C(C)CNCC2 (racemic) [Example 2, (R,S) 8-Chloro-7-methoxy-1-methyl-2,3,4,5-tetrahydro-1H-3-benzazepine] | 4.5 |  | 
3 | COc1cc2c(cc1I)C(C)CNCC2 (racemic) [Example 3, (R,S) 8-Iodo-7-methoxy-1-methyl-2,3,4,5-taetrhydro-1H-3-benzazepine] | 1.4 |  | 
4 | CC1CNCCc2cc(O)c(Br)cc21 (racemic) [Example 4, (R,S) 8-Bromo-7-hydroxy-1-methyl-2,3,4,5-tetrahydro-1H-3-benzazepine] | 2.1 |  | 
5 | C=CCOc1cc2c(cc1Br)C(C)CNCC2 (racemic) [Example 5, (R,S) 7-Allyloxy-8-bromo-1-methyl-2,3,4,5-tetrahydro-1H-3-benzazepine] | 12.1 |  | 
6 | C=CCOc1cc2c(cc1I)C(C)CNCC2 (racemic) [Example 12, (R,S) 7-Allyloxy-8-iodo-1-methyl-2,3,4,5-tetrahydro-1H-3-benzazepine] | 6.3 |  | 
7 | CCC1CNCCc2cc(OC)c(Br)cc21 (racemic) [Example 19, (R,S) 8-Bromo-1-ethyl-7-methoxy-2,3,4,5-tetrahydro-1H-3-benzazepine] | 18 |  | 
8 | CC1CNCCc2ccc(Br)cc21 (racemic) [Example 32, (R,S) 8-Bromo-1-methyl-2,3,4,5-tetrahydro-1H-3-benzazepine] | 2.1 |  | 
9 | C[C@H]1CNCCc2ccc(Cl)cc21 [Compound B, (R)-8-chloro-1-methyl-2,3,4,5-tetrahydro-1H-3-benzazepine] |  | No other significant differences between groups | No other significant differences between groups
10 | CC(C)(N)Cc1ccccc1 [phentermine, 1,1-Dimethyl-2-phenyl-ethylamine, reference compound] |  | No other significant differences between groups | No other significant differences between groups
